From PubChem BioAssay (NCI)
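Growth conditions: 96-well plates. Treatment: test compound, 48 hours, 5 concentrations. Analysis: linear interpolation between bracketing concentrations; unreached endpoints set to highest concentration. The concentration for full growth arrest is given as TGI.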

Key:
Experiment in all cases: growth of human tumour cells (NCI), 48 h
MOLT-4 leukemia = system: MOLT-4 leukemia
SK-MEL-28 melanoma = system: SK-MEL-28 melanoma
MALME-3M melanoma = system: MALME-3M melanoma
OVCAR-3 ovarian = system: OVCAR-3 ovarian
HS 578T breast = system: HS 578T breast
TK-10 renal = system: TK-10 renal
LOX IMVI melanoma = system: LOX IMVI melanoma
MDA-N = system: MDA-N
SK-MEL-5 melanoma = system: SK-MEL-5 melanoma
HT29 colon = system: HT29 colon
SF-268 CNS = system: SF-268 CNS
CCRF-CEM leukemia = system: CCRF-CEM leukemia
EKVX NSCLC = system: EKVX NSCLC
RXF 393 renal = system: RXF 393 renal
SK-OV-3 ovarian = system: SK-OV-3 ovarian
DU-145 prostate = system: DU-145 prostate
NCI-H23 lung = system: NCI-H23 lung
MDA-MB-231 breast = system: MDA-MB-231 breast
K-562 leukemia = system: K-562 leukemia
PC-3 prostate = system: PC-3 prostate
MCF7 breast = system: MCF7 breast
MDA-MB-435 = system: MDA-MB-435
786-0 renal = system: 786-0 renal
CAKI-1 renal = system: CAKI-1 renal
SW-620 colon = system: SW-620 colon
KM12 colon = system: KM12 colon
A498 renal = system: A498 renal
HCT-15 colon = system: HCT-15 colon
UACC-62 melanoma = system: UACC-62 melanoma
SR leukemia = system: SR leukemia
COLO 205 colon = system: COLO 205 colon
OVCAR-8 ovarian = system: OVCAR-8 ovarian
SN12C renal = system: SN12C renal
NCI-H226 lung = system: NCI-H226 lung
M14 melanoma = system: M14 melanoma
NCI/ADR-RES ovarian = system: NCI/ADR-RES ovarian
HCC-2998 colon = system: HCC-2998 colon
HOP-92 NSCLC = system: HOP-92 NSCLC
SNB-19 CNS = system: SNB-19 CNS
SF-539 CNS = system: SF-539 CNS
NCI-H522 lung = system: NCI-H522 lung
BT-549 breast = system: BT-549 breast
U251 CNS = system: U251 CNS
HCT-116 colon = system: HCT-116 colon
A549 NSCLC = system: A549 NSCLC
HOP-62 NSCLC = system: HOP-62 NSCLC
UACC-257 melanoma = system: UACC-257 melanoma
IGROV1 ovarian = system: IGROV1 ovarian
T-47D breast = system: T-47D breast
SK-MEL-2 melanoma = system: SK-MEL-2 melanoma
RPMI-8226 leukemia = system: RPMI-8226 leukemia
NCI-H460 lung = system: NCI-H460 lung
UO-31 renal = system: UO-31 renal
HL-60(TB) leukemia = system: HL-60(TB) leukemia
SF-295 CNS = system: SF-295 CNS
SNB-75 CNS = system: SNB-75 CNS
ACHN renal = system: ACHN renal
OVCAR-4 ovarian = system: OVCAR-4 ovarian
OVCAR-5 ovarian = system: OVCAR-5 ovarian

With `COC1CC(C)(N)C(O)C(C)O1` (configuration not stated) the TGI (MOLT-4 leukemia) was > 100 µM, the TGI (SK-MEL-28 melanoma) was > 100 µM and the TGI (MALME-3M melanoma) was > 100 µM. The TGI (OVCAR-3 ovarian) was > 100 µM, the TGI (HS 578T breast) was > 100 µM and the TGI (TK-10 renal) was > 100 µM. The TGI (LOX IMVI melanoma) was > 100 µM, the TGI (MDA-N) was > 100 µM and the TGI (SK-MEL-5 melanoma) was > 100 µM. The TGI (HT29 colon) was > 100 µM, the TGI (SF-268 CNS) was > 100 µM and the TGI (CCRF-CEM leukemia) was > 100 µM. For the same compound, the TGI (EKVX NSCLC) was > 100 µM, the TGI (RXF 393 renal) was > 100 µM and the TGI (SK-OV-3 ovarian) was > 100 µM. For the same compound, the TGI (DU-145 prostate) was > 100 µM, the TGI (NCI-H23 lung) was > 100 µM and the TGI (MDA-MB-231 breast) was > 100 µM. For the same compound, the TGI (K-562 leukemia) was > 100 µM, the TGI (PC-3 prostate) was > 100 µM and the TGI (MCF7 breast) was > 100 µM. The TGI (MDA-MB-435) was > 100 µM, the TGI (786-0 renal) was > 100 µM and the TGI (CAKI-1 renal) was > 100 µM. For the same compound, the TGI (SW-620 colon) was > 100 µM, the TGI (KM12 colon) was > 100 µM and the TGI (A498 renal) was > 100 µM. The TGI (HCT-15 colon) was > 100 µM, the TGI (UACC-62 melanoma) was > 100 µM and the TGI (SR leukemia) was > 100 µM. The TGI (COLO 205 colon) was > 100 µM, the TGI (OVCAR-8 ovarian) was > 100 µM and the TGI (SN12C renal) was > 100 µM. The TGI (NCI-H226 lung) was > 100 µM, the TGI (M14 melanoma) was > 100 µM and the TGI (NCI/ADR-RES ovarian) was > 100 µM. For the same compound, the TGI (HCC-2998 colon) was > 100 µM, the TGI (HOP-92 NSCLC) was > 100 µM and the TGI (SNB-19 CNS) was > 100 µM. For the same compound, the TGI (SF-539 CNS) was > 100 µM, the TGI (NCI-H522 lung) was > 100 µM and the TGI (BT-549 breast) was > 100 µM. For the same compound, the TGI (U251 CNS) was > 100 µM, the TGI (HCT-116 colon) was > 100 µM and the TGI (A549 NSCLC) was > 100 µM. The TGI (HOP-62 NSCLC) was > 100 µM, the TGI (UACC-257 melanoma) was > 100 µM and the TGI (IGROV1 ovarian) was > 100 µM. For the same compound, the TGI (T-47D breast) was > 100 µM, the TGI (SK-MEL-2 melanoma) was > 100 µM and the TGI (RPMI-8226 leukemia) was > 100 µM. For the same compound, the TGI (NCI-H460 lung) was > 100 µM, the TGI (UO-31 renal) was > 100 µM and the TGI (HL-60(TB) leukemia) was > 100 µM. For the same compound, the TGI (SF-295 CNS) was > 100 µM, the TGI (SNB-75 CNS) was > 100 µM and the TGI (ACHN renal) was > 100 µM.
`O=C(/C=C1\C[C@H]2C=Nc3ccccc3C(=O)N2C1)NCCCNC(=O)/C=C1\C[C@H]2C=Nc3ccccc3C(=O)N2C1` was tested, and the TGI (MOLT-4 leukemia) was 7.37 µM, the TGI (SK-MEL-28 melanoma) was 35.5 µM and the TGI (MALME-3M melanoma) was 30 µM. For the same compound, the TGI (OVCAR-3 ovarian) was 31.3 µM, the TGI (HS 578T breast) was > 100 µM and the TGI (TK-10 renal) was 34 µM. For the same compound, the TGI (LOX IMVI melanoma) was 22.6 µM, the TGI (MDA-N) was 32.3 µM and the TGI (SK-MEL-5 melanoma) was 30.2 µM. For the same compound, the TGI (HT29 colon) was 32.2 µM, the TGI (SF-268 CNS) was 30.8 µM and the TGI (EKVX NSCLC) was 38 µM. The TGI (RXF 393 renal) was 27.9 µM, the TGI (SK-OV-3 ovarian) was 36.4 µM and the TGI (DU-145 prostate) was 35.9 µM. For the same compound, the TGI (NCI-H23 lung) was 30.4 µM, the TGI (MDA-MB-231 breast) was 29.7 µM and the TGI (K-562 leukemia) was 29.4 µM. The TGI (PC-3 prostate) was 31.4 µM, the TGI (MCF7 breast) was 42 µM and the TGI (MDA-MB-435) was 34.3 µM. For the same compound, the TGI (786-0 renal) was 10.9 µM, the TGI (CAKI-1 renal) was 27.2 µM and the TGI (OVCAR-4 ovarian) was 35.6 µM. It also gave a TGI (SW-620 colon) of 28.3 µM, a TGI (KM12 colon) of 31.2 µM and a TGI (A498 renal) of 31.5 µM. The TGI (HCT-15 colon) was 36.9 µM, the TGI (UACC-62 melanoma) was 29.3 µM and the TGI (SR leukemia) was 4.62 µM. The TGI (COLO 205 colon) was 26.2 µM, the TGI (OVCAR-8 ovarian) was 33.2 µM and the TGI (SN12C renal) was 37.9 µM. For the same compound, the TGI (NCI-H226 lung) was 36.3 µM, the TGI (M14 melanoma) was 28 µM and the TGI (NCI/ADR-RES ovarian) was 48.4 µM. For the same compound, the TGI (HCC-2998 colon) was 35.1 µM, the TGI (HOP-92 NSCLC) was 35.4 µM and the TGI (SNB-19 CNS) was 31.4 µM. For the same compound, the TGI (SF-539 CNS) was 34.9 µM, the TGI (NCI-H522 lung) was 4.21 µM and the TGI (BT-549 breast) was 30.3 µM. It also gave a TGI (U251 CNS) of 26.6 µM, a TGI (HCT-116 colon) of 30.5 µM and a TGI (A549 NSCLC) of 46.5 µM. It also gave a TGI (HOP-62 NSCLC) of 35.8 µM, a TGI (UACC-257 melanoma) of 30.3 µM and a TGI (IGROV1 ovarian) of 31 µM. It also gave a TGI (OVCAR-5 ovarian) of 36.2 µM, a TGI (T-47D breast) of 60.1 µM and a TGI (SK-MEL-2 melanoma) of 33.6 µM. It also gave a TGI (RPMI-8226 leukemia) of 40 µM, a TGI (NCI-H460 lung) of 36.2 µM and a TGI (UO-31 renal) of 28.4 µM. For the same compound, the TGI (HL-60(TB) leukemia) was 32 µM, the TGI (SF-295 CNS) was 36.9 µM and the TGI (SNB-75 CNS) was 31.1 µM. The TGI (ACHN renal) was 28.1 µM.
`c1ccc(NNN2NC(c3ccccc3)C2c2ccccc2)cc1` (configuration not stated) was tested, and the TGI (MOLT-4 leukemia) was > 100 µM, the TGI (SK-MEL-28 melanoma) was > 100 µM and the TGI (MALME-3M melanoma) was > 100 µM. The TGI (OVCAR-3 ovarian) was > 100 µM, the TGI (HS 578T breast) was > 100 µM and the TGI (TK-10 renal) was > 100 µM. For the same compound, the TGI (LOX IMVI melanoma) was > 100 µM, the TGI (MDA-N) was > 100 µM and the TGI (SK-MEL-5 melanoma) was > 100 µM. For the same compound, the TGI (HT29 colon) was > 100 µM, the TGI (SF-268 CNS) was > 100 µM and the TGI (CCRF-CEM leukemia) was > 100 µM. For the same compound, the TGI (EKVX NSCLC) was > 100 µM, the TGI (RXF 393 renal) was > 100 µM and the TGI (SK-OV-3 ovarian) was > 100 µM. For the same compound, the TGI (DU-145 prostate) was > 100 µM, the TGI (NCI-H23 lung) was > 100 µM and the TGI (MDA-MB-231 breast) was > 100 µM. For the same compound, the TGI (K-562 leukemia) was > 100 µM, the TGI (PC-3 prostate) was > 100 µM and the TGI (MCF7 breast) was > 100 µM. The TGI (MDA-MB-435) was > 100 µM, the TGI (786-0 renal) was > 100 µM and the TGI (CAKI-1 renal) was > 100 µM. The TGI (OVCAR-4 ovarian) was > 100 µM, the TGI (SW-620 colon) was > 100 µM and the TGI (KM12 colon) was > 100 µM. For the same compound, the TGI (A498 renal) was > 100 µM, the TGI (HCT-15 colon) was > 100 µM and the TGI (UACC-62 melanoma) was > 100 µM. For the same compound, the TGI (SR leukemia) was > 100 µM, the TGI (COLO 205 colon) was > 100 µM and the TGI (OVCAR-8 ovarian) was > 100 µM. For the same compound, the TGI (SN12C renal) was > 100 µM, the TGI (NCI-H226 lung) was > 100 µM and the TGI (M14 melanoma) was > 100 µM. The TGI (NCI/ADR-RES ovarian) was > 100 µM, the TGI (HCC-2998 colon) was > 100 µM and the TGI (HOP-92 NSCLC) was > 100 µM. For the same compound, the TGI (SNB-19 CNS) was > 100 µM, the TGI (SF-539 CNS) was > 100 µM and the TGI (NCI-H522 lung) was > 100 µM. The TGI (BT-549 breast) was > 100 µM, the TGI (U251 CNS) was > 100 µM and the TGI (HCT-116 colon) was > 100 µM. The TGI (A549 NSCLC) was > 100 µM, the TGI (UACC-257 melanoma) was > 100 µM and the TGI (OVCAR-5 ovarian) was > 100 µM. For the same compound, the TGI (T-47D breast) was > 100 µM, the TGI (SK-MEL-2 melanoma) was > 100 µM and the TGI (RPMI-8226 leukemia) was > 100 µM. The TGI (NCI-H460 lung) was > 100 µM, the TGI (UO-31 renal) was > 100 µM and the TGI (HL-60(TB) leukemia) was > 100 µM. For the same compound, the TGI (SF-295 CNS) was > 100 µM, the TGI (SNB-75 CNS) was > 100 µM and the TGI (ACHN renal) was > 100 µM.
